Results published in patent publication US20130330749A1, “METHOD AND APPARATUS FOR DETECTING LIVER DISEASE, AND METHOD FOR ASSAYING PHARMACEUTICAL PREPARATION” (priority 2008, published 2013).

Experiments:
[1] = tested on: glutathione; conditions: mouse, large quantities of APAP, cited from earlier work
[2] = target: T1, γ-glutamyl cysteine synthase (GCS) (Mus musculus, UniProt P97494); experiment: Administration of GCS inhibitor BSO and GCS activator DEM to mice; metabolites in liver and serum measured by CE-TOFMS; assay type: in vivo; conditions: intraperitoneal 4 mmol/kg
T1 construct: Liver specimens (about 300 mg) were excised from the mice 1 hour after administration; from tissue; host or cells: mouse liver (in vivo, intraperitoneal dosing); serum also measured
T1 sequence (P97494 1-637): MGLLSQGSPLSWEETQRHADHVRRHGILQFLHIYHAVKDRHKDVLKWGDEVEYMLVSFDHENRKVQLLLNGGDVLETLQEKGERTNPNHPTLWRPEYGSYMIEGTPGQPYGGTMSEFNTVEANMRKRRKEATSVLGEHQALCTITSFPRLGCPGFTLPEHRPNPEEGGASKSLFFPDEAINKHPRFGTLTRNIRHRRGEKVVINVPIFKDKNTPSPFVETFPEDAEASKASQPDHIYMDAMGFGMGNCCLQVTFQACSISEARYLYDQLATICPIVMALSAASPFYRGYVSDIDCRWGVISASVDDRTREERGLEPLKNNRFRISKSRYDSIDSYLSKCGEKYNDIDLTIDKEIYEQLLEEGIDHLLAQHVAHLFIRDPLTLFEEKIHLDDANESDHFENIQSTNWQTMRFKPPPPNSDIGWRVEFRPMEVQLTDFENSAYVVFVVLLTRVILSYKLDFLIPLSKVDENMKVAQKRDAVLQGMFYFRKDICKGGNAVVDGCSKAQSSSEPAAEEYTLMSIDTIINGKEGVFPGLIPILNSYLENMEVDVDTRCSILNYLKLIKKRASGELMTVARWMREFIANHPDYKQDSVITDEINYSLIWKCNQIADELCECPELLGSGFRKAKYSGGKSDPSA
T1 sequence (O09172 1-274 partner): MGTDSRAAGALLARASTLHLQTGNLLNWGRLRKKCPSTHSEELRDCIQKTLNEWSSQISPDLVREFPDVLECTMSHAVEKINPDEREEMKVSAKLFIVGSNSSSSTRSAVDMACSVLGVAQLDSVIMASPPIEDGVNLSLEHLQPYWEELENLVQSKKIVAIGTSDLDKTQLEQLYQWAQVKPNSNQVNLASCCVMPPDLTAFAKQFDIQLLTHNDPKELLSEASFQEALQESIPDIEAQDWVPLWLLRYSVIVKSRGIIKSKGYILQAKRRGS
From the text: The biosynthesis mechanism of γ-Glu-X peptides was elucidated using a mouse. As shown in FIG. 1(B), the following biosynthesis mechanism of γ-Glu-X peptides was found. That is, the oxidative stress condition caused by active oxygen and electrophiles causes depletion of glutathione, which is used for removing these substances, and this depletion leads to activation of γ-glutamyl cysteine synthase (GCS). Then, γ-Glu-X dipeptides and γ-Glu-X-Gly tripeptides are biosynthesized by using various amino acids as substrates (starting materials). The experimental procedures are described below.
Male mice were fasted overnight and anesthetized by an intraperitoneal injection of pentobarbital sodium (60 mg/Kg of body weight). Then, the mice were intraperitoneally injected with BSO, which is a γ-glutamyl cysteine synthase (GCS) inhibitor, and diethylmaleate (DEM), which is an electrophile (GCS activator), both at a dose of 4 mmol/kg of body weight (888 mg of BSO, 688 mg of DEM). The mouse as a healthy subject was intraperitoneally injected with physiological saline. Liver specimens (about 300 mg) were excised from the mice 1 hour after administration (5 times each).
The liver specimens (about 300 mg) excised from the mice were immediately placed in 1 ml of methanol containing an internal standard substance and were homogenized to inactivate an enzyme, thereby stopping enhancement of metabolism. After 500 μl of pure water was added to the mixture, 300 μl of solution was taken out. To this solution, 200 μl of chloroform was added. After thorough stirring, the solution was further centrifuged at 15000 rpm for 15 minutes at 4° C. After allowing to stand, 300 μl of separated water-methanol phase was passed through a 5 kDa molecular weight cutoff filter for centrifugal ultrafiltration to deproteinize it. The filtrate was lyophilized and 50 μl of Milli-Q water was added thereto. The mixture was subjected to a CE-TOFMS measurement.
The method described below was used to confirm that the detected γ-Glu-X peptides and γ-Glu-X-Gly peptides were synthesized in a glutathione-biosynthesis pathway. […]

Row | Compound | ophthalmic acid level ([1]; in inverse proportion to the glutathione level) | glutathione level [1] | amount of glutathione in the livers ([2]; liver 1 hour after administration, compared to the healthy (saline) mouse) | γ-Glu-X and γ-Glu-X-Gly peptidic substances in the liver other than γ-Glu-Cys, GSH and γ-Glu-Ser-Gly ([2]; liver 1 hour after administration, compared to the healthy subject) | γ-Glu-2AB and ophthalmic acid (γ-Glu-2AB-Gly) in the murine serum ([2]; serum, compared to the normal state)
1 | CC(=O)Nc1ccc(O)cc1 [APAP, Acetaminophen] | increased rapidly | decreased |  |  | 
2 | CCCCS(=N)(=O)CCC(N)C(=O)O (centres unmarked) [BSO] |  |  | decreased rapidly | decreased | decreased
